From PMC7146544, “Dual Plasmepsin-Targeting Antimalarial Agents Disrupt Multiple Stages of the Malaria Parasite Life Cycle” (Cell Host & Microbe, 2020)
Read-outs that look alike come from different tables or passages of the source.

Experiments:
[1] = Pharmacokinetic attributes (no method given); settings: in vivo
[2] = Bioanalytical determination of WM382 in mouse blood by LC-MS/MS; assay type: in vivo; settings: SCID (huSCID), whole blood, po, huSCID mice
Procedure: Serial samples of peripheral blood (25 μL) were taken from the mice of the efficacy experiment in the murine P. falciparum SCID model by tail puncture at 1, 2, 4, 6 and 24 h post first and last drug administration. The samples were immediately lysed by mixing with 25 μL of water, immediately frozen on dry ice and stored at −80°C until bioanalysis (carried out at SBQ, Reinach, Switzerland). The compounds were extracted from 10 μL of each lysate with 50 μL acetonitrile containing the internal standards (reserpine at 100 ng/mL). After a centrifugation step at 50000 g for 10 min, an aliquot of 50 μL of the supernatant was transferred to an autosampler vial and analyzed. The compounds were quantified by LC-MS/MS in the selected reaction monitoring mode using HESI ionization in positive ion mode, using a TSQ Quantum Access Mass spectrometer (Thermo Fisher Scientific, San Jose, CA, USA). The compound concentration versus time data was determined.

P. berghei sporozoites = assay: In vivo analysis of P. berghei liver parasite growth and transition to blood infection; set-up: species or system Plasmodium berghei
Procedure: Female BALB/c mice were infected with PbmCherryLuci sporozoites by either intravenous injection or infectious mosquito bite challenge. Mice (infected by either route) received either no treatment or were treated orally with WM382 (prepared as previously described) at doses and h post infection (hpi) as indicated. For i.v. injections, freshly isolated salivary gland sporozoites were filtered through glass wool to remove debris before 40,000 sporozoites were resuspended in 200 μL Schneider’s Insect Media immediately prior to injection. For infection by mosquito bite, the percent of mosquitoes that contained oocysts was used to place 5 infected mosquitoes in individual feeding cups (for example, if 83% of mosquitoes in the batch had oocysts then 6 mosquitoes were placed in each cup). Mice were anesthetised using ketamine/xylazine and placed on individual feeding cups to begin the infection. Mosquitoes were allowed to feed on the mice for 15 min and mice were rotated between feeding cups every min to promote probing and ensure that all mice were equally exposed to infectious mosquito bites. From day 3 – 30 post infection mice were monitored daily for the presence of parasites in Giemsa stained thin blood smears and considered to be protected from blood infection if they remained negative through this period.
In addition to monitoring thin blood smears, luciferase activity was used to measure liver infection (52 hpi), liver egress (55 hpi) and transition to initial blood infection (65 hpi) in mice infected intravenously. Briefly, mice were injected i.p. with 200 μL XenoLight D-Luciferin (PerkinElmer) and returned to their cage for 5 min prior to anesthesia by isofluorane inhalation for a further 5 min. Between 10 – 15 min post injection of D-luciferin, mice were maintained under isofluorane anesthesia and bioluminescent signal collected using an IVIS Lumina S5 system (PerkinElmer) with a medium binning factor and 3 min integration time. Bioluminescence emanating from a region of interest (ROI) covering the liver region (52 and 55 hpi) or whole animal (65 hpi) was quantified using Living Image software version 4.7.2 (PerkinElmer) and expressed as the total flux in photons/second (p/s). Background flux was measured using an identically sized ROI placed over the lower pelvic region below the liver (52 and 55 hpi) or uninfected mice (65 hpi) and is expressed as the limit of detection (LOD). The parasitemia of the first round of erythrocytic infection was measured at 65 hpi using a LSRFortessa X20 (Becton Dickinson) flow cytometer. Briefly, a drop of whole blood was collected from the tail in 200 μL human tonicity (HT) PBS and immediately analyzed. To identify infected blood cells, mCherry signal intensity was plotted against GFP signal intensity as a decoy reporter. The number of mCherry^+ / GFP^— events are reported per 1 × 10^6 whole blood cells with blood from uninfected mice used as a negative control.

P. knowlesi = P. knowlesi drug sensitivity assay; assay type: cell-based, Plasmodium knowlesi; settings: 48 h, blood stage parasites, read-out: EC50, inhibition of P. knowlesi growth
Procedure: The drug sensitivity assays were performed in 96-well plates using 50 μL culture at 0.5% parasitemia and 2% hematocrit. The compounds were serially diluted in 1% DMSO. Parasite growth assays were performed for 48 h. Parasite cultures were then fixed with 50 μL 0.25% glutaraldehyde for 30 min at room temperature. The culture supernatants were removed and the cells were stained with 5% SYBR Green in the dark for 30 min. Parasitemia was defined by the proportion of Alexa 488-A positive cells in 50,000 recorded events using LSR II analyzer (BD). The percentage of parasite growth was normalized with the DMSO vehicle control group and the highest-dosage group, and plotted as a dose-response curve in Prism 7.

P. berghei = assay: Dose ranging test for P. berghei infection in mice; assay type: in vivo, Plasmodium berghei
Procedure: Control mice were treated orally with chloroquine for 4 days under q.d. dosing regimen at 10 mpk/day. From day 2 to 30 post infection, parasitemia was measured daily by flow cytometry and microscopy, as described above. Survival of animals to day 30 post infection, with no detectable parasites in the peripheral blood, were considered to be cured (i.e., 100% efficacy).

[3] = i.v. sporozoites, 2 × 20 mpk oral
[4] = i.v. sporozoites, oral 20 mpk or 100 mpk b.i.d. at 36 and 48 hpi
[5] = mosquito bite infection, 20 mpk at 36 hpi
[6] = mosquito bite infection, 50 mpk at 36 hpi

CC(NC(=O)c1cccc(C(c2ccccc2)N2C(=N)NC(C)(C(C)C)CC2=O)c1)c1ccccc1 (racemic) [WM4]
pharmacokinetic attributes [1]: did not have desirable pharmacokinetic attributes

CCC1(CC)CC(=O)N([C@@H]2CCOc3ccc(C(=O)N[C@H]4CC(C)(C)Oc5ccccc54)cc32)C(=N)N1 [WM382]
AUC ([2]; 1 mg/kg, oral daily dose 1 mg/kg, read-out: AUC dose 1): 0.06 ± 0.03 µM·h | AUC ([2]; 1 mg/kg, oral daily dose 1 mg/kg, read-out: AUC dose 4): 0.1 ± 0.04 µM·h | AUC ([2]; 3 mg/kg, oral daily dose 3 mg/kg, read-out: AUC dose 1): 0.5 ± 0.18 µM·h | AUC ([2]; 3 mg/kg, oral daily dose 3 mg/kg, read-out: AUC dose 4): 0.37 ± 0.21 µM·h | AUC ([2]; 10 mg/kg, oral daily dose 10 mg/kg, read-out: AUC dose 1): 2.61 ± 1 µM·h | AUC ([2]; 10 mg/kg, oral daily dose 10 mg/kg, read-out: AUC dose 4): 2.62 ± 1.03 µM·h | AUC ([2]; 30 mg/kg, oral daily dose 30 mg/kg, read-out: AUC dose 1): 7.04 ± 1.53 µM·h | AUC ([2]; 30 mg/kg, oral daily dose 30 mg/kg, read-out: AUC dose 4): 5.17 ± 1.22 µM·h | delay to patency (P. berghei sporozoites; [3]): > 4 days | sterile protection against blood infection (P. berghei sporozoites; [3]): 50% | sterile protection against blood infection (P. berghei sporozoites; i.v. sporozoites, 2 × 100 mpk oral): 100% | killing of liver stages and liver egress by 55 hpi (P. berghei sporozoites; [4]): did not kill P. berghei liver stages or markedly prevent liver egress in vivo | parasite liver infection at 52 hpi (P. berghei sporozoites; [4]): no effect | delay to patency (P. berghei sporozoites; [5]): 2 days | protection from blood infection (P. berghei sporozoites; [5]): all mice developed blood infection | delay to patency (P. berghei sporozoites; [6]): 5 days | sterile protection (P. berghei sporozoites; [6]): 80% | protection from patent infection (P. berghei sporozoites; mosquito bite infection, single dose 100 mpk at 36 hpi): protect all mice from developing patent infection | protection from blood infection, prophylactic treatment (P. berghei sporozoites; single dose 50 mpk 4 h before mosquito bite infection): did not confer any protection | EC50 (P. knowlesi; Plasmodium knowlesi): 0.2 nM | EC50 (P. knowlesi): 0.18 ± 0.06 nM | day post-infection from which parasites were detected (P. berghei; WM382 1 mpk oral b.i.d. 4 days): 2 days | day post-infection after which parasites were detectable (P. berghei; WM382 3 mpk oral b.i.d. 4 days): > 12 days | outcome to day 30 post-infection (P. berghei; WM382 3 mpk oral b.i.d. 4 days, n = 4): one mouse remaining parasite-free on day 30 pi | outcome to day 30 post-infection (P. berghei; WM382 10 mpk oral b.i.d. 4 days): remained parasite-free | outcome to day 30 post-infection (P. berghei; WM382 30 mpk oral b.i.d. 4 days): remained parasite-free | outcome to day 30 post-infection (P. berghei; WM382 oral q.d. 60, 30 or 10 mpk/day, 4 days): cured all mice
